US10385072B2, “Gold(III) complexes as anticancer agents and a method of treating cancer” (King Fahd University of Petroleum and Minerals, priority 2017, dated 2019)

Assays:
Assay type in all cases: cell-based, human
[1] = tested on: MCF-7 cells; test: Cell proliferation assay (MTT/MTS), MCF-7; details: 72-120 h, MTT or MTS, mean±SEM
Excerpt: (§1) Hodgkin's lymphoma cell line (L-540) and human androgen-resistant prostate cancer cell line (PC3) were obtained from the German Collection of Microorganisms and Cell Cultures (Braunschweig, Germany). Human breast adenocarcinoma cell line MCF-7 cell line (HTB-22™) was obtained from the American Type Culture Collection (ATCC, Rockville, Md., USA). Human ovarian epithelial carcinoma-derived cancer cells A2780 and its cisplatin-resistant clone A2780cis were from Sigma Inc (St. Louis, Mo., USA), and the isogenic cisplatin-resistant 2780CP-16 cells were cultured as previously described (Siddik, Z. H.; Mims, B.; Lozano, G.; Thai, G. Independent pathways of p53 induction by cisplatin and X-rays in a cisplatin-resistant ovarian tumor cell line. Cancer Res. 1998, 58, 698-703, incorporated herein by reference in its entirety). A panel of non-small cell lung cancer (NSCLC) cell lines (H460, A549, H226, H838, H157, H1975, H2122, SKLU1 and H1299) was obtained from Dr. Garth Powis at MD Anderson Cancer Center. […]
(§2) PC3 and MCF-7 cells (2.5×10^3), A2780, A2780cis (4.0×10^3), A2780CP-16 and lung cancer cells (H460, A549, H226, H838, H157, H1975, H2122, SKLU1 and H1299) were seeded in 96-well flat-bottomed microplates (100 μL) and incubated for 24 h (to allow cell adhesion) before drug testing. […] After treatment, cell proliferation was evaluated by the MTS assay (Promega). […]

[2] = tested on: PC3 cells; test: Cell proliferation assay (MTT/MTS), PC3; details: 72-120 h, MTT or MTS, mean±SEM
Excerpt: as §1, §2

[3] = tested on: L-540 cells; test: Cell proliferation assay (MTS), L-540; details: mean±SEM
Excerpt: as §1, §2

[4] = tested on: cisplatin-resistant 2780CP cells; test: Cell proliferation assay, 2780CP-16; details: 2780CP versus A2780
Excerpt: Hodgkin's lymphoma cell line (L-540) and human androgen-resistant prostate cancer cell line (PC3) were obtained from the German Collection of Microorganisms and Cell Cultures (Braunschweig, Germany). Human breast adenocarcinoma cell line MCF-7 cell line (HTB-22™) was obtained from the American Type Culture Collection (ATCC, Rockville, Md., USA). […]
(§3) PC3 and MCF-7 cells (2.5×10^3), A2780, A2780cis (4.0×10^3), A2780CP-16 and lung cancer cells (H460, A549, H226, H838, H157, H1975, H2122, SKLU1 and H1299) were seeded in 96-well flat-bottomed microplates (100 μL) and incubated for 24 h (to allow cell adhesion) before drug testing. […] After treatment, cell proliferation was evaluated by the MTS assay (Promega). […] The dependency of the anticancer activity of the gold(III) compounds on the type of p53 or the absence of p53 was assessed in A2780 cells following p53 knockdown by CRISPR (Cong, L.; Ran, F. A.; Cox, D.; Lin, S.; Barretto, R.; Habib, N.; Hsu, P. D.; Wu, X.; Jiang, W.; Marraffini, L. A.; Zhang, F. Multiplex genome engineering using CRISPR/Cas systems Science. 2013, 15; 339 (6121), 819-23, incorporate herein by reference in its entirety). […]

[5] = tested on: cisplatin-resistant A2780cis cells; test: Cell proliferation assay (MTT/MTS), A2780cis; details: for IC50: cisplatin-resistant A2780cis cells, 72-120 h, MTT or MTS, mean±SEM
Excerpt: Hodgkin's lymphoma cell line (L-540) and human androgen-resistant prostate cancer cell line (PC3) were obtained from the German Collection of Microorganisms and Cell Cultures (Braunschweig, Germany). Human breast adenocarcinoma cell line MCF-7 cell line (HTB-22™) was obtained from the American Type Culture Collection (ATCC, Rockville, Md., USA). Human ovarian epithelial carcinoma-derived cancer cells A2780 and its cisplatin-resistant clone A2780cis were from Sigma Inc (St. Louis, Mo., USA), and the isogenic cisplatin-resistant 2780CP-16 cells were cultured as previously described (Siddik, Z. H.; Mims, B.; Lozano, G.; Thai, G. Independent pathways of p53 induction by cisplatin and X-rays in a cisplatin-resistant ovarian tumor cell line. Cancer Res. 1998, 58, 698-703, incorporated herein by reference in its entirety). A panel of non-small cell lung cancer (NSCLC) cell lines (H460, A549, H226, H838, H157, H1975, H2122, SKLU1 and H1299) was obtained from Dr. Garth Powis at MD Anderson Cancer Center. Cell lines were further authenticated for their origin by BMR Genomics according to Cell ID System (Promega) protocol and using Genemapper ID Ver 3.2.1 to identify DNA short tandem repeat profiles. The […] cisplatin-resistant subclone (A2780cis) was maintained by weekly treatment with 1 μM cisplatin (Casagrande, N.; Celegato, M.; Borghese, C.; Mongiat, M.; Colombatti, A.; Aldinucci, D. Preclinical activity of the liposomal cisplatin Lipoplatin in ovarian cancer. Clin. Cancer Res. 2014, 20(21), 5496-5506, incorporated herein by reference in its entirety).
Cells were cultured in 5% CO2 in RPMI (for L-540, A2780, A2780cis, 2780CP-16, PC3 and the panel of lung cancer cells) or DMEM (for MCF-7 cells) media supplemented with 10% heat-inactivated fetal calf serum (FCS; Sigma-Aldrich-Italy), 0.2 mg/ml penicillin/streptomycin and 0.1% (w/v) L-gluamine (Biocrom) at 37° C. in a 5% CO2 fully humidified atmosphere.
(§4) Gold(III) compounds were dissolved in DMSO (final concentration of the gold(III) complexes was 10 mM) and stored at −80° C. in volumes of 500 μL or aliquoted into volumes of 10 μL and stored at −20° C. (used once without refreezing). They were then diluted in RPMI medium immediately before use. The culture medium with the same amount of drug-free DMSO was used as negative control.
as §2

[6] = tested on: A2780 cells; test: Cell proliferation assay (MTT/MTS), A2780; details: 72-120 h, MTT or MTS, mean±SEM
Excerpt: as §1, §2

[7] = tested on: A2780 ovarian cancer cells (CRISPR p53 KO); test: MTT assay, A2780 with p53 knocked out by CRISPR/Cas9; details: A2780 clone with p53 knocked out
Description: as §3, with “testing. The medium was then removed and replaced with fresh medium which separately contained cisplatin and the gold(III) compounds 1 to 9 at increasing concentrations (from 0.01 to 100 μM) at 37° C. for 72-120 h. Each treatment was performed in triplicate. Cell proliferation was assayed using the MTT assay or the MTS assay.” for “testing.”

[8] = tested on: WT-p53 A2780 ovarian cancer cells (CRISPR Control); test: MTT assay, A2780 transfected with CRISPR control plasmid; details: A2780 clone with control plasmid
Description: as §3, with “testing. The medium was then removed and replaced with fresh medium which separately contained cisplatin and the gold(III) compounds 1 to 9 at increasing concentrations (from 0.01 to 100 μM) at 37° C. for 72-120 h. Each treatment was performed in triplicate. Cell proliferation was assayed using the MTT assay or the MTS assay.” for “testing.”

[9] = tested on: NSCLC cell lines (H460, A549, H226, H838, H157, H1975, H2122, SKLU1 and H1299); test: Cell proliferation assay, NSCLC panel grouped by p53 status; details: range over the NSCLC panel (WT-, Mut- and Null-p53)
Excerpt: as §1, §2

[10] = tested on: A549 cells; test: Dose-response curves in A549 cells; details: 5 days after contacting
Description: as §4
as §3, with “testing. The medium was then removed and replaced with fresh medium which separately contained cisplatin and the gold(III) compounds 1 to 9 at increasing concentrations (from 0.01 to 100 μM) at 37° C. for 72-120 h.” for “testing.”

[11] = tested on: L-540, PC3, MCF-7, A2780 and A2780cis cell lines; test: In vitro cytotoxicity across the cell line panel, compared with cisplatin; details: all cell lines tested
Description: as §3, with “testing. The medium was then removed and replaced with fresh medium which separately contained cisplatin and the gold(III) compounds 1 to 9 at increasing concentrations (from 0.01 to 100 μM) at 37° C. for 72-120 h. Each treatment was performed in triplicate. Cell proliferation was assayed using the MTT assay or the MTS assay.” for “testing.”

Row | Molecule | IC50 [1] [nM] | IC50 [2] [nM] | IC50 [3] [nM] | fold cisplatin resistance of 2780CP cells [4] [fold] | fold higher IC50 in A2780cis than in A2780 ([5]; A2780cis versus A2780) | IC50 [5] [nM] | Fold resistance A2780cis/A2780 ratio ([5]; ratio of IC50 in A2780cis to IC50 in A2780) | IC50 [6] [nM] | IC50 [7] [nM] | IC50 [8] [nM] | IC50 [9] [nM] | potency from dose-response curves in A549 cells [10] | activity compared with cisplatin [11]
1 | cis-[Pt(NH3)2Cl2] [Cisplatin, reference compound] | 22200 ± 200 | 3300 ± 300 | 2500 ± 100 | 20 | about 7 fold | 10400 ± 900 | 6.93 | 1500 ± 100 |  |  |  |  | 
2 | CN(C)C(=S)[S][Au+2].Cc1ccc(-c2ccc(C)cn2)nc1.[Cl-].[Cl-] [Compound 4] | 280 ± 20 | 590 ± 50 | 2700 ± 220 |  |  | 170 ± 10 |  | 280 ± 30 | 83 ± 3 | 87 ± 3 | 120 to 310 | greater potencies than compounds 3, 6, and 9 | generally more effective than cisplatin
